Laboratory results from PubChem BioAssay (NCI).
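Method: 48-hour compound exposure of cells in 96-well plates, five concentrations, linear interpolation of endpoints. GI50 = concentration required for 50% inhibition of growth. TGI marks complete inhibition of growth.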

Key:
Experiment in all cases: NCI-60 cell line screen, 48 h
786-0 renal = system: 786-0 renal
A498 renal = system: A498 renal
A549 NSCLC = system: A549 NSCLC
ACHN renal = system: ACHN renal
BT-549 breast = system: BT-549 breast
CAKI-1 renal = system: CAKI-1 renal
CCRF-CEM leukemia = system: CCRF-CEM leukemia
COLO 205 colon = system: COLO 205 colon
DU-145 prostate = system: DU-145 prostate
EKVX NSCLC = system: EKVX NSCLC
HCC-2998 colon = system: HCC-2998 colon
HCT-116 colon = system: HCT-116 colon
HCT-15 colon = system: HCT-15 colon
HL-60(TB) leukemia = system: HL-60(TB) leukemia
HOP-62 NSCLC = system: HOP-62 NSCLC
HOP-92 NSCLC = system: HOP-92 NSCLC
HS 578T breast = system: HS 578T breast
HT29 colon = system: HT29 colon
IGROV1 ovarian = system: IGROV1 ovarian
K-562 leukemia = system: K-562 leukemia
KM12 colon = system: KM12 colon
LOX IMVI melanoma = system: LOX IMVI melanoma
M14 melanoma = system: M14 melanoma
MALME-3M melanoma = system: MALME-3M melanoma
MCF7 breast = system: MCF7 breast
MDA-MB-231 breast = system: MDA-MB-231 breast
MDA-MB-435 = system: MDA-MB-435
MOLT-4 leukemia = system: MOLT-4 leukemia
NCI-H226 lung = system: NCI-H226 lung
NCI-H23 lung = system: NCI-H23 lung
NCI-H460 lung = system: NCI-H460 lung
NCI-H522 lung = system: NCI-H522 lung
NCI/ADR-RES ovarian = system: NCI/ADR-RES ovarian
OVCAR-3 ovarian = system: OVCAR-3 ovarian
OVCAR-4 ovarian = system: OVCAR-4 ovarian
OVCAR-5 ovarian = system: OVCAR-5 ovarian
OVCAR-8 ovarian = system: OVCAR-8 ovarian
PC-3 prostate = system: PC-3 prostate
RPMI-8226 leukemia = system: RPMI-8226 leukemia
RXF 393 renal = system: RXF 393 renal
SF-268 CNS = system: SF-268 CNS
SF-295 CNS = system: SF-295 CNS
SF-539 CNS = system: SF-539 CNS
SK-MEL-2 melanoma = system: SK-MEL-2 melanoma
SK-MEL-28 melanoma = system: SK-MEL-28 melanoma
SK-MEL-5 melanoma = system: SK-MEL-5 melanoma
SK-OV-3 ovarian = system: SK-OV-3 ovarian
SN12C renal = system: SN12C renal
SNB-19 CNS = system: SNB-19 CNS
SNB-75 CNS = system: SNB-75 CNS
SR leukemia = system: SR leukemia
SW-620 colon = system: SW-620 colon
T-47D breast = system: T-47D breast
TK-10 renal = system: TK-10 renal
U251 CNS = system: U251 CNS
UACC-257 melanoma = system: UACC-257 melanoma
UACC-62 melanoma = system: UACC-62 melanoma
UO-31 renal = system: UO-31 renal

Work on `CCc1cccc2c3c(sc12)C(c1ccc(Cl)cc1)C(C#N)=C(N)O3` (stereo unspecified) yielded a GI50 (786-0 renal) of 940 nM, a TGI (786-0 renal) of 14700 nM and a GI50 (A498 renal) of 224 nM. It also gave a TGI (A498 renal) of 1520 nM, a GI50 (A549 NSCLC) of 736 nM and a TGI (A549 NSCLC) of 12900 nM. It also gave a GI50 (ACHN renal) of 622 nM, a TGI (ACHN renal) of 14300 nM and a GI50 (BT-549 breast) of 983 nM. The TGI (BT-549 breast) was 15600 nM, the GI50 (CAKI-1 renal) was 403 nM and the TGI (CAKI-1 renal) was 14000 nM. It also gave a GI50 (CCRF-CEM leukemia) of 391 nM, a TGI (CCRF-CEM leukemia) of 21400 nM and a GI50 (COLO 205 colon) of 810 nM. For the same compound, the TGI (COLO 205 colon) was 6270 nM, the GI50 (DU-145 prostate) was 596 nM and the TGI (DU-145 prostate) was 11400 nM. The GI50 (EKVX NSCLC) was 1080 nM, the TGI (EKVX NSCLC) was 14700 nM and the GI50 (HCC-2998 colon) was 1320 nM. It also gave a TGI (HCC-2998 colon) of 7420 nM, a GI50 (HCT-116 colon) of 408 nM and a TGI (HCT-116 colon) of 9590 nM. It also gave a GI50 (HCT-15 colon) of 418 nM, a TGI (HCT-15 colon) of 9590 nM and a GI50 (HL-60(TB) leukemia) of 355 nM. For the same compound, the TGI (HL-60(TB) leukemia) was 9480 nM, the GI50 (HOP-62 NSCLC) was 623 nM and the TGI (HOP-62 NSCLC) was 11100 nM. The GI50 (HOP-92 NSCLC) was 753 nM, the TGI (HOP-92 NSCLC) was 6920 nM and the GI50 (HS 578T breast) was 363 nM. The TGI (HS 578T breast) was 2600 nM, the GI50 (HT29 colon) was 457 nM and the TGI (HT29 colon) was 3610 nM. For the same compound, the GI50 (IGROV1 ovarian) was 530 nM, the TGI (IGROV1 ovarian) was 11100 nM and the GI50 (K-562 leukemia) was 391 nM. The TGI (K-562 leukemia) was greater than 100000 nM, the GI50 (KM12 colon) was 447 nM and the TGI (KM12 colon) was 13100 nM. For the same compound, the GI50 (LOX IMVI melanoma) was 545 nM, the TGI (LOX IMVI melanoma) was 4220 nM and the GI50 (M14 melanoma) was 472 nM. For the same compound, the TGI (M14 melanoma) was 4790 nM, the GI50 (MALME-3M melanoma) was 712 nM and the TGI (MALME-3M melanoma) was 9900 nM. The GI50 (MCF7 breast) was 334 nM, the TGI (MCF7 breast) was 4660 nM and the GI50 (MDA-MB-231 breast) was 1560 nM. The TGI (MDA-MB-231 breast) was 7720 nM, the GI50 (MDA-MB-435) was 196 nM and the TGI (MDA-MB-435) was 463 nM. It also gave a GI50 (MOLT-4 leukemia) of 590 nM, a TGI (MOLT-4 leukemia) of 27600 nM and a GI50 (NCI-H226 lung) of 881 nM. The TGI (NCI-H226 lung) was 9430 nM, the GI50 (NCI-H23 lung) was 692 nM and the TGI (NCI-H23 lung) was 5180 nM. For the same compound, the GI50 (NCI-H460 lung) was 414 nM, the TGI (NCI-H460 lung) was 3010 nM and the GI50 (NCI-H522 lung) was 338 nM. It also gave a TGI (NCI-H522 lung) of 4390 nM, a GI50 (NCI/ADR-RES ovarian) of 349 nM and a TGI (NCI/ADR-RES ovarian) of 2240 nM. It also gave a GI50 (OVCAR-3 ovarian) of 384 nM, a TGI (OVCAR-3 ovarian) of 2670 nM and a GI50 (OVCAR-4 ovarian) of 1700 nM. It also gave a TGI (OVCAR-4 ovarian) of 17300 nM, a GI50 (OVCAR-5 ovarian) of 1420 nM and a TGI (OVCAR-5 ovarian) of 8930 nM. The GI50 (OVCAR-8 ovarian) was 869 nM, the TGI (OVCAR-8 ovarian) was 11000 nM and the GI50 (PC-3 prostate) was 390 nM. The TGI (PC-3 prostate) was 10700 nM, the GI50 (RPMI-8226 leukemia) was 442 nM and the TGI (RPMI-8226 leukemia) was 7950 nM. The GI50 (RXF 393 renal) was 258 nM, the TGI (RXF 393 renal) was 976 nM and the GI50 (SF-268 CNS) was 933 nM. The TGI (SF-268 CNS) was 22200 nM, the GI50 (SF-295 CNS) was 306 nM and the TGI (SF-295 CNS) was 1170 nM. The GI50 (SF-539 CNS) was 360 nM, the TGI (SF-539 CNS) was 1560 nM and the GI50 (SK-MEL-2 melanoma) was 1250 nM. For the same compound, the TGI (SK-MEL-2 melanoma) was 19200 nM, the GI50 (SK-MEL-28 melanoma) was 2060 nM and the TGI (SK-MEL-28 melanoma) was 19300 nM. The GI50 (SK-MEL-5 melanoma) was 898 nM, the TGI (SK-MEL-5 melanoma) was 12000 nM and the GI50 (SK-OV-3 ovarian) was 1140 nM. For the same compound, the TGI (SK-OV-3 ovarian) was 29800 nM, the GI50 (SN12C renal) was 805 nM and the TGI (SN12C renal) was 12500 nM. It also gave a GI50 (SNB-19 CNS) of 499 nM, a TGI (SNB-19 CNS) of 12100 nM and a GI50 (SNB-75 CNS) of 195 nM. The TGI (SNB-75 CNS) was 718 nM, the GI50 (SR leukemia) was 414 nM and the TGI (SR leukemia) was 31800 nM. It also gave a GI50 (SW-620 colon) of 450 nM, a TGI (SW-620 colon) of 12200 nM and a GI50 (T-47D breast) of 493 nM. The TGI (T-47D breast) was 16100 nM, the GI50 (TK-10 renal) was 3180 nM and the TGI (TK-10 renal) was 15400 nM. For the same compound, the GI50 (U251 CNS) was 496 nM, the TGI (U251 CNS) was 5260 nM and the GI50 (UACC-257 melanoma) was 8640 nM. For the same compound, the TGI (UACC-257 melanoma) was 33100 nM, the GI50 (UACC-62 melanoma) was 351 nM and the TGI (UACC-62 melanoma) was 5270 nM. It also gave a GI50 (UO-31 renal) of 691 nM and a TGI (UO-31 renal) of 13400 nM.
